Experimental data published in ChEMBL document CHEMBL6115028, “An Amazing 30-Year Journey around the DABO Family: A Medicinal Chemistry Lesson on a Versatile Class of Non-nucleoside HIV-1 Reverse Transcriptase Inhibitors” (J Med Chem, 2025).
Converted amounts (≈) assume the structure as drawn.

Columns and labels:
[1] = tested on: Human immunodeficiency virus 1; experiment: Antiviral activity against HIV-1 IIIB infected in human MT2 cells assessed as inhibition of viral growth; type: functional, organism-based; details: Human immunodeficiency virus 1, IIIB
MT2 = experiment: Cytotoxicity against human MT2 cells assessed as reduction in cell growth; type: functional, cell-based
[2] = Cytotoxicity against human PBMC cells; type: toxicity, cell-based
[3] = Selectivity index, ratio of CC50 for Vero cells to EC50 for antiviral activity against HIV-1 infected in Vero cells; type: toxicity, cell-based; details: monkey, read-out: Ratio CC50/EC50
[4] = Cytotoxicity against African green monkey Vero cells assessed as reduction in cell viability incubated for 72 hrs by MTT assay; type: toxicity, cell-based; details: chlorocebus sabaeus
[5] = tested on: Human immunodeficiency virus 1; experiment: Antiviral activity against HIV-1 IIIB infected in […] cells assessed as reduction in viral replication measured for 72 hrs; type: functional, organism-based; details: Human immunodeficiency virus 1, IIIB
[6] = target: Human immunodeficiency virus type 1 reverse transcriptase (Human immunodeficiency virus 1, UniProt Q72547); experiment: Inhibition of HIV-1 Reverse transcriptase
[7] = Solubility in water; type: physicochemical
[8] = Oral bioavailability in rat; type: ADME, organism-based; details: in vivo
Hepatitis B virus = experiment: Antiviral activity against Hepatitis B virus infected in human HepG2.2.15 cells assessed as inhibition of HBV DNA production by qRT-PCR analysis; type: functional, organism-based
Staphylococcus aureus [9] = experiment: Antibacterial activity against Staphylococcus aureus; type: functional
Bacillus subtilis = experiment: Antibacterial activity against Bacillus subtilis; type: functional
MT4 = experiment: Cytotoxicity against human MT4 cells assessed as reduction in cell growth measured after 3 days by MTT assay; type: functional; details: MT4, 72 h, time 3 day
C8166 [10] = experiment: Cytotoxicity against human C8166 cells assessed as reduction in cell growth measured after 3 days by MTT assay; type: functional; details: C8166, 72 h, time 3 day
[11] = tested on: Human immunodeficiency virus 1; experiment: Antiviral activity against HIV-1 WAN infected in human […] cells at 0.03 MOI assessed as reduction in viral replication incubated for 2 hrs by ELISA analysis; type: functional, organism-based; details: Human immunodeficiency virus 1, WAN, C8166, 2 h
[12] = tested on: Human immunodeficiency virus 1; experiment: Antiviral activity against HIV-1 TC-2 infected in human […] cells at 0.03 MOI assessed as reduction in viral replication incubated for 2 hrs by ELISA analysis; type: functional, organism-based; details: Human immunodeficiency virus 1, TC-2, C8166, 2 h
[13] = tested on: Human immunodeficiency virus 1; experiment: Antiviral activity against HIV-1 NL4-3 harboring reverse transcriptase V106M mutant infected in human C8166 cells assessed as reduction in virus-induced cytopathic effect measured for 2 hrs by ELISA analysis; type: functional, organism-based; details: Human immunodeficiency virus 1, NL4-3, C8166, 2 h
[14] = tested on: Human immunodeficiency virus 1; experiment: Antiviral activity against HIV-1 A17 infected in human […] cells at 0.03 MOI assessed as reduction in viral replication incubated for 2 hrs by ELISA analysis; type: functional, organism-based; details: Human immunodeficiency virus 1, A17, C8166, 2 h
[15] = tested on: Human immunodeficiency virus 1; experiment: Antiviral activity against HIV-1 NL4-3 harboring reverse transcriptase V106A mutant infected in human C8166 cells assessed as reduction in virus-induced cytopathic effect measured for 2 hrs by ELISA analysis; type: functional, organism-based; details: Human immunodeficiency virus 1, NL4-3, C8166, 2 h
[16] = tested on: Human immunodeficiency virus 1; experiment: Antiviral activity against HIV-1 IIIB infected in human […] cells at 0.03 MOI assessed as reduction in viral replication incubated for 2 hrs by ELISA analysis; type: functional, organism-based; details: Human immunodeficiency virus 1, IIIB, C8166, 2 h
[17] = tested on: Human immunodeficiency virus 1; experiment: Antiviral activity against HIV-1 NL4-3 harboring reverse transcriptase Y181C mutant infected in human C8166 cells assessed as reduction in virus-induced cytopathic effect measured for 2 hrs by ELISA analysis; type: functional, organism-based; details: Human immunodeficiency virus 1, NL4-3, C8166, 2 h
[18] = tested on: Human immunodeficiency virus 1; experiment: Antiviral activity against HIV-1 NL4-3 harboring reverse transcriptase K103N mutant infected in human C8166 cells assessed as reduction in virus-induced cytopathic effect measured for 2 hrs by ELISA analysis; type: functional, organism-based; details: Human immunodeficiency virus 1, NL4-3, C8166, 2 h
[19] = Cytotoxicity against human PBMC cells assessed as reduction in cell growth measured after 3 days by MTT assay; type: functional; details: 72 h, time 3 day
[20] = tested on: Human immunodeficiency virus 1; experiment: Antiviral activity against wild type HIV-1 NL4-3 harboring reverse transcriptase infected in human C8166 cells assessed as reduction in virus-induced cytopathic effect measured for 2 hrs by ELISA analysis; type: functional, organism-based; details: Human immunodeficiency virus 1, NL4-3, C8166, 2 h
[21] = tested on: Human immunodeficiency virus 1; experiment: Antiviral activity against HIV-1 KM018 infected in human […] cells at 0.03 MOI assessed as reduction in viral replication incubated for 2 hrs by ELISA analysis; type: functional, organism-based; details: Human immunodeficiency virus 1, KM018, C8166, 2 h
[22] = tested on: Human immunodeficiency virus 1; experiment: Antiviral activity against HIV-1 NL4-3 harboring reverse transcriptase V108I mutant infected in human C8166 cells assessed as reduction in virus-induced cytopathic effect measured for 2 hrs by ELISA analysis; type: functional, organism-based; details: Human immunodeficiency virus 1, NL4-3, C8166, 2 h
[23] = tested on: Human immunodeficiency virus 1; experiment: Antiviral activity against HIV-1 MN infected in human […] cells at 0.03 MOI assessed as reduction in viral replication incubated for 2 hrs by ELISA analysis; type: functional, organism-based; details: Human immunodeficiency virus 1, MN, C8166, 2 h
[24] = tested on: Human immunodeficiency virus 1; experiment: Antiviral activity against HIV-1 IIIB infected in human C8166 cells assessed as reduction in virus-induced cytopathic effect incubated for 3 days by MTT assay; type: functional, organism-based; details: Human immunodeficiency virus 1, IIIB, C8166, 72 h
[25] = tested on: Human immunodeficiency virus 1; experiment: Antiviral wild type activity against HIV-1 IIIB infected in human C8166 cells assessed as reduction in virus-induced cytopathic effect incubated for 3 days by MTT assay; type: functional, organism-based; details: Human immunodeficiency virus 1, IIIB, C8166, 72 h
[26] = tested on: Human immunodeficiency virus 1; experiment: Antiviral wild type activity against HIV-1 TC-1 infected in human PBMC cells assessed as reduction in virus-induced cytopathic effect incubated for 3 days by MTT assay; type: functional, organism-based; details: Human immunodeficiency virus 1, TC-1, PBMC, 72 h
[27] = tested on: Human immunodeficiency virus 1; experiment: Antiviral wild type activity against HIV-1 WAN infected in human PBMC cells assessed as reduction in virus-induced cytopathic effect incubated for 3 days by MTT assay; type: functional, organism-based; details: Human immunodeficiency virus 1, WAN, 72 h
[28] = tested on: Human immunodeficiency virus 1; experiment: Antiviral […] activity against HIV-1 A17 harboring reverse transcriptase K103N/Y181C double mutant infected in human C8166 cells assessed as reduction in virus-induced cytopathic effect incubated for 3 days by MTT assay; type: functional, organism-based; details: Human immunodeficiency virus 1, A17, C8166, 72 h
[29] = tested on: Human immunodeficiency virus 1; experiment: Antiviral wild type activity against HIV-1 Ba-L infected in human TZM-bl cells assessed as reduction in virus-induced cytopathic effect incubated for 3 days by MTT assay; type: functional, organism-based; details: Human immunodeficiency virus 1, Ba-L, 72 h
[30] = tested on: Vesicular stomatitis virus; experiment: Antiviral activity against Vesicular stomatitis virus infected in Vero cells assessed as inhibition of cytopathic effect measured after 96 hrs by fluorescence based CPE reduction method; type: functional, organism-based
Sindbis virus = experiment: Antiviral activity against Sindbis virus infected in Vero cells assessed as reduction in viral growth incubated for 96 hrs by plaque assay; type: functional, organism-based
Rubella virus = experiment: Antiviral activity against Rubella virus infected in Vero cells assessed as reduction in viral growth incubated for 96 hrs by plaque assay; type: functional, organism-based
Staphylococcus aureus [31] = experiment: Antibacterial activity against Staphylococcus aureus assessed as reduction in microbial growth measured for 18 hrs by CLSI based broth microdilution method; type: functional
[32] = Toxicity in human C8166 cells assessed as reduction in cell viability incubated for 72 hrs by MTT assay; type: cell-based; details: read-out: TD50
[33] = Toxicity in African green monkey Vero cells assessed as reduction in cell viability incubated for 72 hrs by MTT assay; type: cell-based; details: chlorocebus sabaeus, read-out: TD50
HepG2 2.2.15 = experiment: Cytotoxicity against human HepG2.2.15 cells assessed as reduction in cell growth by MTT assay; type: functional
[34] = Selectivity index, ratio of CC50 for human C8166 cells to EC50 for antiviral activity against HIV-1 IIIB infected in human C8166 cells; type: toxicity, cell-based; details: read-out: Ratio CC50/EC50
[35] = tested on: Human immunodeficiency virus 1; experiment: Antiviral activity against wild type HIV-1 IIIB infected in human MT4 cells; type: functional, organism-based; details: Human immunodeficiency virus 1, IIIB
C8166 [36] = experiment: Cytotoxicity against human C8166 cells assessed as reduction in cell viability incubated for 72 hrs by MTT assay; type: functional

SMILES: Nc1cc(Cl)nc(SCc2ccccc2)n1
- EC50 [1]: 400 nM
- IC50 (MT2): > 16000 nM
- IC50 [2]: > 16000 nM

SMILES: Cc1c(Sc2ccccc2)n(COCCO)c(=O)[nH]c1=O [HEPT]
- selectivity ratio [3]: 106
- CC50 at 72 h [4]: 740000 nM
- EC50 [5]: 7000 nM

SMILES: CCc1c(CC2CCCCC2)nc(SCC(=O)c2ccc(OP(=O)(OC)OC)cc2)[nH]c1=O
- IC50 [6]: 750 nM
- solubility [7]: 6.4 µM
- EC50 [5]: 10 nM
- bioavailability [8]: 14.6%

SMILES: O=c1[nH]c(SC2O[C@H](CO)[C@H](O)[C@@H](O)[C@@H]2O)nc(Cc2ccccc2)c1Cc1ccccc1 (stereo not given in full)
- EC50 (Hepatitis B virus): 200 nM

SMILES: N#Cc1c(-c2ccc(Br)cc2)nc(S/C(=N/Nc2ccc(O)cc2)C(=O)c2ccc(Br)cc2)[nH]c1=O
- MIC (Staphylococcus aureus [9]): 1.17 µg/mL (≈ 1.87 µM)
- MIC (Bacillus subtilis): 2.34 µg/mL (≈ 3.74 µM)

SMILES: CCc1c(CC2CCCCC2)nc(SCC(=O)c2ccccc2)[nH]c1=O
- CC50 (MT4): > 100000 nM
- CC50 (C8166 [10]): > 100000 nM
- EC50 [11]: 25 nM
- EC50 [12]: 8 nM
- EC50 [13]: 172 nM
- IC50 [6]: 440 nM
- EC50 [14]: 38900 nM
- EC50 [15]: 734 nM
- solubility [7]: 4 µg/mL
- EC50 [16]: 2 nM
- EC50 [17]: 241 nM
- EC50 [18]: 709 nM
- CC50 [19]: > 100000 nM
- EC50 [20]: 7 nM
- EC50 [21]: 41 nM
- EC50 [22]: 12 nM
- EC50 [23]: 5 nM

SMILES: CCc1c(CC2CCCCC2)nc(SCc2cc(-c3ccc(O)cc3)[nH]n2)[nH]c1=O
- EC50 [24]: 3 nM
- EC50 [25]: 4 nM
- EC50 [26]: 14 nM
- EC50 [27]: 56 nM
- EC50 [28]: 2770 nM
- EC50 [29]: 48 nM

SMILES: CCN(CC)CCc1cc(=O)[nH]c(SC)n1
- IC50 [30]: 29 µg/mL (≈ 120 µM)
- IC50 (Sindbis virus): 44.3 µg/mL (≈ 184 µM)
- IC50 (Rubella virus): 3.9 µg/mL (≈ 16.2 µM)

SMILES: COc1ccc(C(Cl)(Cl)c2cc(Cl)nc(OC)n2)cc1
- MIC (Staphylococcus aureus [31]): 6.2 µg/mL
- CC50 at 72 h [32]: 25 µg/mL (≈ 74.9 µM)
- CC50 at 72 h [33]: 12.5 µg/mL (≈ 37.5 µM)

SMILES: O=c1[nH]c(SC2OC[C@H](O)[C@@H](O)[C@@H]2O)nc(Cc2ccccc2)c1Cc1ccccc1 (stereo not given in full)
- EC50 (Hepatitis B virus): 200 nM
- CC50 (HepG2 2.2.15): > 100000 nM

SMILES: CCc1c(CC23CC4CC(CC(C4)C2)C3)nc(SCC(=O)c2ccc(OC)cc2)[nH]c1=O
- EC50 [24]: 100 nM
- selectivity ratio [34]: 172
- EC50 [35]: 100 nM
- CC50 (C8166 [36]): 17200 nM

SMILES: Cc1ccc(-c2nc(S/C(=N/Nc3ccc(O)cc3)C(=O)c3ccc(Br)cc3)[nH]c(=O)c2C#N)cc1
- MIC (Staphylococcus aureus [9]): 0.19 µg/mL (≈ 0.339 µM)
- MIC (Bacillus subtilis): 1.17 µg/mL (≈ 2.09 µM)
